“Also recorded” adds a separate entry of the source.
How the values were obtained:
Format in all cases: in vivo, Arabidopsis thaliana
[1] = tested on: Arabidopsis WT, OE At, OE Pa, OE M3 seedlings; assay: Herbicide resistance after Arabidopsis germination (seedlings transferred to herbicide medium)
Method: In order to further confirm the correctness of the results obtained in the germination test, an analysis experiment on herbicide resistance after Arabidopsis germination was conducted. Arabidopsis seedlings germinated by OE At, OE Pa, OE M3 and WT for 7 days were transferred to ½ MS medium containing different concentrations (0, 100, 250, 500, and 1000 nM) of mesotrione and grown for 1 week. 5 seedlings were treated per genotype with 3 biological replicates. After 1 week, the effect of the herbicide treatment (i.e., albino) was photographed.

[2] = tested on: Arabidopsis WT, OE At, OE Pa, OE M3 potted plants; assay: Herbicide resistance of Arabidopsis at pot level (spray)
Method: 2 week-old Arabidopsis seedlings of WT, OE At, OE Pa, and OE M3 were transplanted into soil-filled pots (12 seedlings per pot) and growth in a phytotron (22° C., 14 h light/10 h dark, 120 μmol m^−2 s^−1 light intensity) for 4 weeks. Then, 5 μM mesotrione solution (prepared with 0.05% Tween-20) were sprayed twice with a treatment interval of 3 days, and compared with the control treatment (0.05% Tween-20 without herbicide). The spray treatment was biologically repeated 3 times. Two weeks after the first herbicide spray, the test results were photographed.

[3] = tested on: Arabidopsis WT, OE At, OE Pa, OE M3 seedlings; assay: NBT and DAB staining of Arabidopsis seedlings (superoxide, hydrogen peroxide); conditions: 100 nM, 72 h
Method: (§1) 2 week-old Arabidopsis seedlings were cultured continuously in ½ MS mediums with 100 nM mesotrione and without mesotrione for 72 h, and then transferred to 3.5 mg/mL NBT staining solution (prepared with potassium phosphate buffer containing 10 mM NaN3) and soaked in vacuum for 2 min, and then placed on a shaker overnight. The NBT-stained plants were placed in a mixed solution of acetic acid:glycerol:ethanol=1:1:3 (v/v/v) and destained at 100° C. for 5 min, then reserved in a mixed solution of glycerol:ethanol=1:4 (v/v), and was used to take photos to record the test results.
as §1, with “DAB” for “3.5 mg/mL NBT”, “solution,” for “solution (prepared with potassium phosphate buffer containing 10 mM NaN3)”, “for 7-8 hours.” for “overnight.”, “DAB-stained” for “NBT-stained”, “glycerol: ethanol=1:4” for “glycerol:ethanol=1:4”
2 week-old T3 generation Arabidopsis seedlings of WT, OE At, OE Pa and OE M3 were transfered to different control (½ MS medium) and treatment medium (½ MS medium containing 100 nM mesotrione) for 72 h, and then stained with NBT and DAB to detect the accumulation of reactive oxygen species.

CS(=O)(=O)c1ccc(C(=O)C2C(=O)CCCC2=O)c([N+](=O)[O-])c1 [mesotrione]
cotyledon phenotype ([1]; OE At and OE Pa, 250 nM, 1 week): albino | concentration at which seedlings grew well (maximum tolerance concentration of seedlings) ([1]; OE M3, 7-day seedlings, 1 week on 1/2 MS medium): 250 nM | concentration at which cotyledons were albino ([1]; WT, 7-day seedlings, 1 week on 1/2 MS medium): 100 nM | maximum tolerance concentration under potted conditions ([2]; Arabidopsis overexpressing PaHPPD-M3, sprayed on fully expanded leaves): 5 µM | phenotype ([2]; OE M3 line, 5 μM sprayed twice, 2 weeks after first spray): grows well | phenotype of new leaves of seedlings ([2]; WT, OE At and OE Pa lines, 5 μM sprayed twice, 2 weeks after first spray): completely albino | accumulation of superoxide and hydrogen peroxide of OE M3 compared with WT, OE At and OE Pa [3]: significantly less; also recorded: significantly reduced

Source: US11952582B2, “Herbicide-resistance gene and application thereof in plant breeding” (priority 2017, dated 2024)
